Data on three compounds can be found in US20100316746A1, “Pesticidal Compound Mixtures” (Bayer CropScience AG, priority 2007, published 2010).

The structures appear in SMILES notation.

One assay has as its system Phaedon cochleariae. Kind of assay: Phaedon cochleariae-Test (larvae, sprayed cabbage leaves). The format is in vivo. The conditions noted are these: 144 h, after 6 d, spray on cabbage leaves. As to the method:
(§1) Solvent: 7 parts by weight of dimethylformamide Emulsifier: 2 parts by weight of alkylaryl polyglycolether
(§2) To produce a suitable preparation of active compound, 1 part by weight of active compound is mixed with the stated amount of solvent and emulsifier, and the concentrate is diluted with emulsifier-containing water to the desired concentration.
Cabbage leaves (Brassica oleracea) are treated by being sprayed with the preparation of the active compound in the desired concentration and are infested with larvae of the mustard beetle (Phaedon cochleariae) as long as the leaves are still moist.
After the specified period of time, the mortality in % is determined. 100% means that all the beetle larvae have been killed; 0% means that none of the beetle larvae have been killed.

Another assay deals with Myzus persicae. Kind of assay: Myzus persicae-Test (sprayed cabbage leaves). The format is in vivo. As to conditions: 144 h, after 6 d, spray on cabbage leaves. The procedure:
as §1, §2
Cabbage leaves (Brassica oleracea) which are heavily infested by the green peach aphid (Myzus persicae) are treated by being sprayed with the preparation of the active compound at the desired concentration.
After the specified period of time, the mortality in % is determined. 100% means that all the aphids have been killed; 0% means that none of the aphids have been killed.

The term mortality denotes the share of the test organisms that died. Lower therefore signals more survivors. For the compound `CN/C(=N\[N+](=O)[O-])NCc1cnc(Cl)s1` [Clothianidin, clothianidin], in the assay on Phaedon cochleariae (4 ppm), the mortality at 4 ppm was 55%. Also, the mortality at 0.8 ppm with Myzus persicae (0.8 ppm) is 65%.

Take `CC(C)C1CCC(Cc2ccc(Cl)cc2)C1(O)Cn1cncn1` (centres unmarked) [Ipconazole, ipconazole]: the mortality at 200 ppm with Phaedon cochleariae (200 ppm) amounted to 5%; with Myzus persicae, 10%.

As to `COCC(=O)N(c1c(C)cccc1C)C(C)C(=O)OC` (centres unmarked) [Metalaxyl, metalaxyl], in the assay on Myzus persicae, the mortality at 200 ppm came to 0%.
